# Source: patent US20220119354A1, “DIAMINO-SUBSTITUTED PYRIDINES AND PYRIMIDINES AS HERBICIDES” (FMC Corporation, priority 2019, published 2022)
# What was measured:
# Format in all cases: in vivo
# [1] = tested on: barnyardgrass (Echinochloa crus-galli); assay: Test A preemergence, barnyardgrass; details: 0 to 100 scale
# Summary of the method: (§1)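 Pots of loam–sand mix; preemergence directed soil spray at sowing, postemergence spray at one- to two-leaf stage. Readout: visual injury vs untreated controls, ~10 d, 0–100 scale.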
# kochia (Kochia scoparia) [2] = assay: Test A preemergence, kochia; details: 0 to 100 scale
# Summary of the method: as §1
# [3] = tested on: ragweed (common ragweed, Ambrosia elatior); assay: Test A preemergence, ragweed; details: 0 to 100 scale
# Summary of the method: as §1
# [4] = tested on: ryegrass, Italian (Lolium multiflorum); assay: Test A preemergence, Italian ryegrass; details: 0 to 100 scale
# Summary of the method: as §1
# [5] = tested on: foxtail, green (Setaria viridis); assay: Test A preemergence, green foxtail; details: 0 to 100 scale
# Text: (§2) Seeds of plant species selected from barnyardgrass (Echinochloa crus-galli), kochia (Kochia scoparia), ragweed (common ragweed, Ambrosia elatior), ryegrass, Italian (Lolium multiflorum), foxtail, giant (Setaria faberii), foxtail, green (Setaria viridis), and pigweed (Amaranthus retroflexus) were planted into a blend of loam soil and sand and treated preemergence with a directed soil spray using test chemicals formulated in a non-phytotoxic solvent mixture which included a surfactant.
# (§3) At the same time, plants selected from these weed species and also wheat (Triticum aestivum), corn (Zea mays), blackgrass (Alopecurus myosuroides), and galium (catchweed bedstraw, Galium aparine) were planted in pots containing the same blend of loam soil and sand and treated with postemergence applications of test chemicals formulated in the same manner. Plants ranged in height from 2 to 10 cm and were in the one- to two-leaf stage for the postemergence treatment. Treated plants and untreated controls were maintained in a greenhouse for approximately 10 d, after which time all treated plants were compared to untreated controls and visually evaluated for injury. Plant response ratings, summarized in Table A, are based on a 0 to 100 scale where 0 is no effect and 100 is complete control. A dash (-) response means no test result.
# [6] = tested on: pigweed (Amaranthus retroflexus); assay: Test A preemergence, pigweed; details: 0 to 100 scale
# Summary of the method: as §1
# [7] = tested on: barnyardgrass (Echinochloa crus-galli); assay: Test A postemergence, barnyardgrass; details: 0 to 100 scale
# Summary of the method: as §1
# kochia (Kochia scoparia) [8] = assay: Test A postemergence, kochia; details: 0 to 100 scale
# Summary of the method: as §1
# [9] = tested on: ragweed (common ragweed, Ambrosia elatior); assay: Test A postemergence, ragweed; details: 0 to 100 scale
# Summary of the method: as §1
# [10] = tested on: ryegrass, Italian (Lolium multiflorum); assay: Test A postemergence, Italian ryegrass; details: 0 to 100 scale
# Summary of the method: as §1
# [11] = tested on: foxtail, green (Setaria viridis); assay: Test A postemergence, green foxtail; details: 0 to 100 scale
# Text: as §2, §3
# [12] = tested on: pigweed (Amaranthus retroflexus); assay: Test A postemergence, pigweed; details: 0 to 100 scale
# Summary of the method: as §1
# [13] = tested on: wheat (Triticum aestivum); assay: Test A postemergence, wheat; details: 0 to 100 scale
# Summary of the method: as §1
# corn (Zea mays) = assay: Test A postemergence, corn; details: 0 to 100 scale
# Summary of the method: as §1
# [14] = tested on: blackgrass (Alopecurus myosuroides); assay: Test A postemergence, blackgrass; details: 0 to 100 scale
# Summary of the method: as §1
# [15] = tested on: galium (catchweed bedstraw, Galium aparine); assay: Test A postemergence, galium; details: 0 to 100 scale
# Summary of the method: as §1
# rice (Oryza sativa) = assay: Test B flooded paddy test, rice; details: Flood, 250 g ai/ha, applied to paddy water, 2-leaf stage, visual evaluation after 13 to 15 d
# Summary of the method: (§4)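 Application was made into paddy water of pots flooded 3 cm deep at treatment, with seedlings at the 2-leaf stage. That flood level was kept throughout, and plants stayed under glass 13 to 15 d before visual assessment on a 0–100 control scale.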
# [16] = tested on: sedge, umbrella (small-flower umbrella sedge, Cyperus difformis); assay: Test B flooded paddy test, umbrella sedge; details: Flood, 250 g ai/ha, applied to paddy water, 2-leaf stage, visual evaluation after 13 to 15 d
# Summary of the method: as §4
# [17] = tested on: ducksalad (Heteranthera limosa); assay: Test B flooded paddy test, ducksalad; details: Flood, 250 g ai/ha, applied to paddy water, 2-leaf stage, visual evaluation after 13 to 15 d
# Summary of the method: as §4
# [18] = tested on: barnyardgrass (Echinochloa crus-galli); assay: Test B flooded paddy test, barnyardgrass; details: Flood, 250 g ai/ha, applied to paddy water, 2-leaf stage, visual evaluation after 13 to 15 d
# Summary of the method: as §4
# [19] = tested on: foxtail, giant (Setaria faberii); assay: Test A preemergence, giant foxtail; details: 0 to 100 scale
# Summary of the method: as §1
# [20] = tested on: foxtail, giant (Setaria faberii); assay: Test A postemergence, giant foxtail; details: 0 to 100 scale
# Summary of the method: as §1
Structure (SMILES),"Plant response rating, Barnyardgrass ([1]; 125 g ai/ha)","Plant response rating, Barnyardgrass ([1]; 500 g ai/ha)","Plant response rating, Kochia (kochia (Kochia scoparia) [2]; 125 g ai/ha)","Plant response rating, Kochia (kochia (Kochia scoparia) [2]; 500 g ai/ha)","Plant response rating, Ragweed ([3]; 125 g ai/ha)","Plant response rating, Ragweed ([3]; 500 g ai/ha)","Plant response rating, Ryegrass, Italian ([4]; 125 g ai/ha)","Plant response rating, Ryegrass, Italian ([4]; 500 g ai/ha)","Plant response rating, Pigweed ([6]; 125 g ai/ha)","Plant response rating, Pigweed ([6]; 500 g ai/ha)","Plant response rating, Barnyardgrass ([7]; 125 g ai/ha)","Plant response rating, Barnyardgrass ([7]; 500 g ai/ha)","Plant response rating, Kochia (kochia (Kochia scoparia) [8]; 125 g ai/ha)","Plant response rating, Kochia (kochia (Kochia scoparia) [8]; 500 g ai/ha)","Plant response rating, Ragweed ([9]; 125 g ai/ha)","Plant response rating, Ragweed ([9]; 500 g ai/ha)","Plant response rating, Ryegrass, Italian ([10]; 125 g ai/ha)","Plant response rating, Ryegrass, Italian ([10]; 500 g ai/ha)","Plant response rating, Pigweed ([12]; 125 g ai/ha)","Plant response rating, Pigweed ([12]; 500 g ai/ha)",further results
CC(CCc1ccccc1)Nc1ncc(C(F)(F)F)c(N)n1 (stereo not drawn) [Compound 23],0,0,0,0,0,0,0,0,0,50,0,0,0,0,0,0,0,0,0,0,"Plant response rating, Foxtail, Green ([5]; 125 g ai/ha): 0; Plant response rating, Foxtail, Green ([5]; 500 g ai/ha): 0; Plant response rating, Foxtail, Green ([11]; 125 g ai/ha): 0; Plant response rating, Foxtail, Green ([11]; 500 g ai/ha): 0; Plant response rating, Wheat ([13]; 125 g ai/ha): 0; Plant response rating, Wheat ([13]; 500 g ai/ha): 0; Plant response rating, Corn (corn (Zea mays); 125 g ai/ha): 0; Plant response rating, Corn (corn (Zea mays); 500 g ai/ha): 0; Plant response rating, Blackgrass ([14]; 125 g ai/ha): 0; Plant response rating, Blackgrass ([14]; 500 g ai/ha): 0; Plant response rating, Galium ([15]; 125 g ai/ha): 0; Plant response rating, Galium ([15]; 500 g ai/ha): 0; Plant response rating, Rice (0 to 100 scale, 0 is no effect, 100 is complete control) (rice (Oryza sativa)): 0; Plant response rating, Sedge, Umbrella (0 to 100 scale, 0 is no effect, 100 is complete control) [16]: 0; Plant response rating, Ducksalad (0 to 100 scale, 0 is no effect, 100 is complete control) [17]: 0; Plant response rating, Barnyardgrass (0 to 100 scale, 0 is no effect, 100 is complete control) [18]: 0"
CCC(Nc1ncc(C(F)(F)F)c(N)n1)c1cc2ccccc2o1 (racemic) [Compound 28],50,90,10,90,20,100,20,60,90,100,0,30,30,80,20,60,0,0,90,100,"Plant response rating, Foxtail, Giant ([19]; 125 g ai/ha): 60; Plant response rating, Foxtail, Giant ([19]; 500 g ai/ha): 90; Plant response rating, Foxtail, Giant ([20]; 125 g ai/ha): 10; Plant response rating, Foxtail, Giant ([20]; 500 g ai/ha): 40; Plant response rating, Wheat ([13]; 125 g ai/ha): 0; Plant response rating, Wheat ([13]; 500 g ai/ha): 10; Plant response rating, Corn (corn (Zea mays); 125 g ai/ha): 0; Plant response rating, Corn (corn (Zea mays); 500 g ai/ha): 80; Plant response rating, Blackgrass ([14]; 125 g ai/ha): 10; Plant response rating, Blackgrass ([14]; 500 g ai/ha): 80; Plant response rating, Galium ([15]; 125 g ai/ha): 70; Plant response rating, Galium ([15]; 500 g ai/ha): 90; Plant response rating, Rice (0 to 100 scale, 0 is no effect, 100 is complete control) (rice (Oryza sativa)): 20; Plant response rating, Sedge, Umbrella (0 to 100 scale, 0 is no effect, 100 is complete control) [16]: 100; Plant response rating, Ducksalad (0 to 100 scale, 0 is no effect, 100 is complete control) [17]: 75; Plant response rating, Barnyardgrass (0 to 100 scale, 0 is no effect, 100 is complete control) [18]: 0"
